Source: patent US7078400B2, “20-HETE synthase inhibitor” (Taisho Pharmaceutical Co., Ltd., priority 1999, dated 2006)

Legend:
[1] = test system: 20-HETE synthase originated from rat kidney microsome; experiment: Inhibitory effect of 20-HETE synthase originated from rat kidney microsome; format: biochemical; settings: for Inhibition rate (1 μM): 20-HETE production without compound set to 100%
Method: Experimental Example [Inhibitory effect of 20-HETE synthase originated from rat kidney microsome]
Regarding the compounds listed in Table 1, their inhibitory activity to production of 20-HETE was examined.
The subject compound for this examination was added to a buffer comprising 50 mM of 3-morpholinopropane sulfonic acid (pH7.4), 5 mM of magnesium chloride and 1 mM of ethylenediaminetetraacetic acid (EDTA) disodium salt.
After that, the rat kidney microsome (microsome fraction prepared from the kidney of a spontaneous hypertension rat (male, 6 weeks of age)) as an enzyme, [5,6,8,9,11,12,14,15] tritium-arachidonic acid (supplied by Amasham) as a substrate, and NADPH (supplied by Sigma) as a coenzyme were added and reacted for 1.5 hours at 37° C.
After the reaction, formic acid was added to stop the reaction, and then acetonitrile (final concentration of 50%) was added and left for 1.5 hours at room temperature.
The activity of 20-HETE synthase was measured by using a high performance liquid chromatograph having a detector for radioactive substances (supplied by Gilson), and equipped with a C18 reversed phase column (Biocyl C18, supplied by Bio-rad).

[2] = 1 μM of the subject compound added, rat kidney microsome
[3] = 1 μM of subject compound, rat kidney microsome

Q: With `COC(=O)c1cc(N/C=N/O)cc(C(=O)OC)c1` [Comp. 129] as the compound, how does the melting point read?
A: Its melting point is 183 to 183.5 °C.

Q: With `COc1cc(N/C=N/O)cc(OC)c1OC` [Comp. 103] as the compound, how does the melting point read?
A: The melting point was 143 to 146 °C.

Q: With `CCCCCCc1ccc(N/C=N/O)cc1` [Comp. 9] as the compound, how does the melting point read?
A: Its melting point is 108 to 110 °C.

Q: Which melting point does the source give for `CCc1ccc(N/C=N/O)cc1` [Comp. 16] here?
A: Its melting point is 141 to 142 °C.

Q: With `O/N=C/Nc1ccc2c(c1)OCO2` [Comp. 230] as the compound, how does the melting point read?
A: The melting point was 165 to 165.5 °C.

Q: For `O/N=C/Nc1ccc(Cc2ccccc2)cc1` [Comp. 233], which melting point is on record?
A: Its melting point is 118 to 119.5 °C.

Q: For `CCCc1cc(Br)c(N/C=N/O)c(Br)c1` [Comp. 48], which melting point is on record?
A: The melting point was 155 to 156 °C.

Q: Which melting point does the source give for `COc1cccc(C)c1N/C=N/O` [Comp. 52] here?
A: Its melting point is 145 to 146 °C.

Q: For `O/N=C/Nc1ccc(F)cc1Cl` [Comp. 69], which “Inhibition rate (1 μM)” value [1, 2] is on record?
A: Its value is 58.7.

Q: With `O/N=C/Nc1ccc(SCc2ccc(Cl)cc2)cc1` [Comp. 437] as the compound, how does the “Inhibition rate (1 μM)” value ([1]; 1 μM of the subject compound) read?
A: The value was 96.1.

Q: With `CC(C)c1ccc(N/C=N/O)cc1` [Comp. 30] as the compound, how does the melting point read?
A: Its melting point is 143 to 143.5 °C.

Q: For `O/N=C/Nc1c(Br)cc(C2CCCCC2)cc1Br` [Comp. 102], which “Inhibition rate (1 μM)” value [1, 2] is on record?
A: The value was 44.4.

Q: For `CC(=O)N(C)c1ccc(N/C=N/O)cc1` [Comp. 301], which “Inhibition rate (1 μM)” value [1, 3] is on record?
A: The value was 62.1.

Q: Which “Inhibition rate (1 μM)” value [1, 2] does the source give for `Cc1ccc(C(C)C)cc1N/C=N/O` [Comp. 57] here?
A: Its value is 59.1.

Q: With `CCCCCCCCOc1ccc(N/C=N/O)cc1` [Comp. 322] as the compound, how does the “Inhibition rate (1 μM)” value [1, 3] read?
A: The value was 117.5.

Q: Which “Inhibition rate (1 μM)” value ([1]; 1 μM of the subject compound) does the source give for `CCCCCCCSc1ccc(N/C=N/O)cc1` [Comp. 452] here?
A: Its value is 112.3.

Q: Which “Inhibition rate (1 μM)” value [1, 2] does the source give for `COc1ccccc1N/C=N/O` [Comp. 59] here?
A: The value was 49.0.

Q: For `COC(=O)c1ccc(COc2ccc(N/C=N/O)cc2)cc1` [Comp. 396], which “Inhibition rate (1 μM)” value [1, 3] is on record?
A: The value was 102.7.

Q: Which “Inhibition rate (1 μM)” value [1, 3] does the source give for `COc1ccccc1CCOc1ccc(N/C=N/O)cc1` [Comp. 379] here?
A: Its value is 105.4.

Q: With `O/N=C/Nc1c(F)c(F)c(F)c(F)c1F` [Comp. 215] as the compound, how does the “Inhibition rate (1 μM)” value [1, 3] read?
A: The value was 36.1.

Q: With `Cc1cccc(N/C=N/O)c1` [Comp. 62] as the compound, how does the “Inhibition rate (1 μM)” value [1, 2] read?
A: The value was 69.5.

Q: With `Cc1ccc(N/C=N/O)c(F)c1` [Comp. 165] as the compound, how does the “Inhibition rate (1 μM)” value [1, 2] read?
A: The value was 105.7.

Q: Which melting point does the source give for `CC(C)(C)c1ccc(N/C=N/O)cc1` [Comp. 2, N-(4-tert-butylphenyl)-N′-hydroxy-formamidine] here?
A: The melting point was 113.5 to 114.5 °C.

Q: With `O/N=C/Nc1ccc(SC(F)(F)F)cc1` [Comp. 224] as the compound, how does the “Inhibition rate (1 μM)” value [1, 3] read?
A: Its value is 47.1.

Q: With `Cc1cc(C)c(N/C=N/O)c([N+](=O)[O-])c1` [Comp. 95] as the compound, how does the “Inhibition rate (1 μM)” value [1, 2] read?
A: The value was 44.5.

Q: For `O/N=C/Nc1ccc(OC(F)F)cc1` [Comp. 151], which “Inhibition rate (1 μM)” value [1, 2] is on record?
A: Its value is 108.2.

Q: For `O/N=C/Nc1ccc(Br)cc1C(F)(F)F` [Comp. 77], which “Inhibition rate (1 μM)” value [1, 2] is on record?
A: The value was 49.0.

Q: Which “Inhibition rate (1 μM)” value [1, 2] does the source give for `O/N=C/Nc1ccccc1Br` [Comp. 75] here?
A: The value was 46.9.

Q: For `OCCCCCOc1ccc(N/C=N/O)cc1` [Comp. 427], which IC50 ([1]; concentration at which production of 20-HETE was inhibited to 50%) is on record?
A: The IC50 was 2.6 nM.

Q: With `NS(=O)(=O)c1ccccc1N/C=N/O` [Comp. 236, N-(2-aminosulfonylphenyl)-N′-hydroxyformamidine] as the compound, how does the melting point read?
A: The melting point was 130.5 to 131.5 °C.

Q: With `CCCCc1ccc(C)c(N/C=N/O)c1` [Comp. 133] as the compound, how does the melting point read?
A: Its melting point is 116.5 to 117.5 °C.

Q: With `CNS(=O)(=O)Cc1ccc(N/C=N/O)cc1` [Comp. 259] as the compound, how does the “Inhibition rate (1 μM)” value [1, 3] read?
A: Its value is 52.8.

Q: For `CC(=O)Nc1ccc(N/C=N/O)cc1C(F)(F)F` [Comp. 150], which “Inhibition rate (1 μM)” value [1, 2] is on record?
A: The value was 34.1.

Q: Which “Inhibition rate (1 μM)” value [1, 2] does the source give for `O/N=C/Nc1ccc(Cl)cc1Br` [Comp. 117] here?
A: The value was 71.6.

Q: With `CN(C)c1ccc(/C=C/c2ccc(N/C=N/O)cc2)cc1` [Comp. 282] as the compound, how does the “Inhibition rate (1 μM)” value [1, 3] read?
A: The value was 122.9.

Q: Which “Inhibition rate (1 μM)” value ([1]; 1 μM of the subject compound) does the source give for `COC(=O)CCSc1ccc(N/C=N/O)cc1` [Comp. 455] here?
A: The value was 105.6.

Q: With `COc1ccc(N/C=N/O)cc1Cl` [Comp. 101] as the compound, how does the “Inhibition rate (1 μM)” value [1, 2] read?
A: Its value is 52.4.

Q: With `O/N=C/Nc1ccc(OCC2CCCCCC2)cc1` [Comp. 370] as the compound, how does the “Inhibition rate (1 μM)” value [1, 3] read?
A: The value was 113.7.

Q: Which “Inhibition rate (1 μM)” value [1, 2] does the source give for `CCCc1cccc(N/C=N/O)c1` [Comp. 179] here?
A: Its value is 63.5.
